Some test systems named below: IGROV1 ovarian; NCI/ADR-RES ovarian; HCT-15 colon; SK-OV-3 ovarian; RXF 393 renal; OVCAR-5 ovarian; UACC-62 melanoma; MOLT-4 leukemia; 786-0 renal; SR leukemia; PC-3 prostate.
Common to all, as to assay: DTP human tumour cell line panel, 48 h

In general, TGI refers to the concentration at which net growth stops. Higher therefore signals lower sensitivity of the cells.

Structures are written as SMILES.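 Method: 48-hour compound exposure of cells in 96-well plates, five concentrations, linear interpolation of endpoints. Definition used: TGI = concentration required for complete inhibition of growth.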 Where only a bound is given, the exact number is not on record here.

Take `O=NN(CCCl)C(=O)NC1CCC(O)CC1` (centres undefined): the TGI was > 100 µM with IGROV1 ovarian; 69.4 µM in the assay on NCI/ADR-RES ovarian; 58.2 µM in the assay with HCT-15 colon; > 100 µM in the assay on SK-OV-3 ovarian; > 71.5 µM with RXF 393 renal; > 100 µM in the assay with OVCAR-5 ovarian. Moreover, the TGI in the assay on UACC-62 melanoma was determined as 40.4 µM; with MOLT-4 leukemia, 68.4 µM.

As for `O=C(CN(c1ccccc1)c1ccccc1)n1nnc2ccccc21`, the TGI in the assay on IGROV1 ovarian, with HCT-15 colon, with SK-OV-3 ovarian, with 786-0 renal, in the assay on RXF 393 renal and with OVCAR-5 ovarian was > 100 µM throughout. Moreover, the TGI in the assay with UACC-62 melanoma, in the assay with MOLT-4 leukemia and in the assay with SR leukemia was > 100 µM throughout.

In the case of `Cc1ccc(S(=O)(=O)C(C#N)c2nc3ccccc3nc2-n2ccnc2)cc1` (centres undefined), the TGI in the assay on IGROV1 ovarian, in the assay on HCT-15 colon, with SK-OV-3 ovarian, with 786-0 renal, in the assay on OVCAR-5 ovarian and with MOLT-4 leukemia was > 100 µM each time.

`COc1c(C(C)C)cc2c3c1OC(=O)[C@@]31CCCC(C)(C)C1CC2` (some centres undefined): the TGI is > 100 µM in the assay on IGROV1 ovarian; > 100 µM in the assay on HCT-15 colon; 76.1 µM in the assay with SK-OV-3 ovarian; > 100 µM with 786-0 renal; 56.3 µM in the assay on RXF 393 renal; > 100 µM with OVCAR-5 ovarian. Besides, the TGI with UACC-62 melanoma, in the assay with MOLT-4 leukemia and in the assay with SR leukemia was > 100 µM throughout.

In the case of `CC(C)CC(O)P(=O)(O)O` (centres undefined), the TGI with SK-OV-3 ovarian, with 786-0 renal, in the assay with RXF 393 renal, in the assay with OVCAR-5 ovarian, in the assay on UACC-62 melanoma and in the assay on MOLT-4 leukemia was > 100 µM throughout. Also, in the assay on PC-3 prostate, the TGI is > 100 µM.

Turning to `CC(=O)O[C@]12CCCCCC1C1(O)C(O)CCCC[C@H]12` (some centres undefined), the TGI in the assay with HCT-15 colon, in the assay with SK-OV-3 ovarian, with 786-0 renal, in the assay with RXF 393 renal, with UACC-62 melanoma and in the assay on MOLT-4 leukemia was > 100 µM each time. For the same compound, the TGI with SR leukemia is > 100 µM.

Take `Cc1cc(NCc2ccccc2)c2ccccc2[n+]1CCCCCCCCCC[n+]1c(C)cc(NCc2ccccc2)c2ccccc21`: the TGI in the assay on IGROV1 ovarian is > 100 µM; in the assay on NCI/ADR-RES ovarian, 21.9 µM; in the assay with HCT-15 colon, 5.88 µM; in the assay on SK-OV-3 ovarian, 6.85 µM; with 786-0 renal, 2.44 µM; in the assay with RXF 393 renal, 12.9 µM. For the same compound, the TGI with OVCAR-5 ovarian came to 12.7 µM; in the assay with UACC-62 melanoma, 0.567 µM; in the assay with PC-3 prostate, 5.16 µM.

Turning to `CSc1sc2ccccc2[s+]1`, the TGI in the assay on IGROV1 ovarian, with HCT-15 colon, in the assay on SK-OV-3 ovarian, in the assay on 786-0 renal, in the assay with RXF 393 renal and with OVCAR-5 ovarian was > 100 µM in each case. Further, the TGI in the assay with UACC-62 melanoma, with MOLT-4 leukemia and in the assay with SR leukemia was > 100 µM each time.

Regarding `Cn1c2ccccc2c(=O)c2cccc(C(=O)NC(CCCN=C(N)N)C(=O)O)c21` (centres undefined), the TGI in the assay with IGROV1 ovarian was > 100 µM; in the assay with NCI/ADR-RES ovarian, 96 µM; in the assay with HCT-15 colon, > 100 µM; in the assay with SK-OV-3 ovarian, > 100 µM; in the assay on 786-0 renal, > 100 µM; in the assay on OVCAR-5 ovarian, > 100 µM. The TGI in the assay on UACC-62 melanoma, in the assay on MOLT-4 leukemia and with PC-3 prostate was > 100 µM each time.

For `CCOc1ccc(/C=C2/C(=O)N=C(NC(C)=O)N2C)cc1`, the TGI with IGROV1 ovarian, in the assay on NCI/ADR-RES ovarian, with HCT-15 colon, in the assay with SK-OV-3 ovarian, in the assay on 786-0 renal and in the assay with RXF 393 renal was > 100 µM throughout. The TGI in the assay on OVCAR-5 ovarian, in the assay on UACC-62 melanoma and with MOLT-4 leukemia was > 100 µM in each case.

With `COc1cc2c3c(c1OC)C1(C=CC(=O)C=C1)C[C@H]3N(C)CC2`, the TGI in the assay on IGROV1 ovarian, in the assay on HCT-15 colon, in the assay on SK-OV-3 ovarian, in the assay on 786-0 renal, in the assay with RXF 393 renal and in the assay on OVCAR-5 ovarian was > 100 µM in each case. Besides, the TGI with UACC-62 melanoma, with MOLT-4 leukemia and with SR leukemia was > 100 µM in each case.

For `CC1=C(CO)C(=O)O[C@@H]([C@@H](CO)[C@H]2CCC3C4C[C@@H](O)[C@@]5(O)CC=CC(=O)[C@]5(C)C4CC[C@@]32C)C1` (some centres undefined), the TGI was > 100 µM with IGROV1 ovarian; > 100 µM in the assay with NCI/ADR-RES ovarian; > 100 µM with HCT-15 colon; > 100 µM in the assay with SK-OV-3 ovarian; > 100 µM in the assay on 786-0 renal; 92.9 µM in the assay with RXF 393 renal. Besides, the TGI in the assay on OVCAR-5 ovarian, in the assay on UACC-62 melanoma, in the assay with MOLT-4 leukemia and with SR leukemia was > 100 µM throughout.

Regarding `OCc1ccc(C2CC(c3ccco3)=NN2c2ccccc2)o1` (centres undefined), the TGI in the assay on IGROV1 ovarian, in the assay on HCT-15 colon, in the assay with 786-0 renal, with RXF 393 renal, in the assay with OVCAR-5 ovarian and in the assay on UACC-62 melanoma was > 100 µM throughout. Also, the TGI in the assay on MOLT-4 leukemia and in the assay on SR leukemia was > 100 µM each time.

(Values after PubChem BioAssay (NCI).)
